In PubChem BioAssay (NCI):
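Where inhibition never reached the appropriate level, the endpoint shown equals the highest concentration tested. Otherwise, values were interpolated linearly from a five-concentration, 48-hour dose response in 96-well plates. TGI: concentration producing complete growth inhibition.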

How the values were obtained:
Assay in all cases: DTP human tumour cell line panel, 48 h
SF-295 CNS = system: SF-295 CNS
U251 CNS = system: U251 CNS
SW-620 colon = system: SW-620 colon
UACC-257 melanoma = system: UACC-257 melanoma
CAKI-1 renal = system: CAKI-1 renal
SN12C renal = system: SN12C renal
NCI-H23 lung = system: NCI-H23 lung
HCT-116 colon = system: HCT-116 colon
HOP-62 NSCLC = system: HOP-62 NSCLC
HOP-92 NSCLC = system: HOP-92 NSCLC
KM12 colon = system: KM12 colon
SK-MEL-28 melanoma = system: SK-MEL-28 melanoma
EKVX NSCLC = system: EKVX NSCLC
NCI-H460 lung = system: NCI-H460 lung
M19-MEL melanoma = system: M19-MEL melanoma
A549 NSCLC = system: A549 NSCLC
UACC-62 melanoma = system: UACC-62 melanoma
NCI-H522 lung = system: NCI-H522 lung
OVCAR-8 ovarian = system: OVCAR-8 ovarian
OVCAR-3 ovarian = system: OVCAR-3 ovarian
SF-539 CNS = system: SF-539 CNS
SNB-19 CNS = system: SNB-19 CNS
DMS 273 small cell lung = system: DMS 273 small cell lung
SK-MEL-5 melanoma = system: SK-MEL-5 melanoma
TK-10 renal = system: TK-10 renal
SK-MEL-2 melanoma = system: SK-MEL-2 melanoma
IGROV1 ovarian = system: IGROV1 ovarian
HCT-15 colon = system: HCT-15 colon
LOX IMVI melanoma = system: LOX IMVI melanoma
ACHN renal = system: ACHN renal
UO-31 renal = system: UO-31 renal
LXFL 529 NSCLC = system: LXFL 529 NSCLC
HCC-2998 colon = system: HCC-2998 colon
M14 melanoma = system: M14 melanoma
DLD-1 colon = system: DLD-1 colon
OVCAR-4 ovarian = system: OVCAR-4 ovarian
786-0 renal = system: 786-0 renal
HT29 colon = system: HT29 colon
SF-268 CNS = system: SF-268 CNS
RPMI-8226 leukemia = system: RPMI-8226 leukemia
DU-145 prostate = system: DU-145 prostate
MDA-N = system: MDA-N
MDA-MB-231 breast = system: MDA-MB-231 breast
HL-60(TB) leukemia = system: HL-60(TB) leukemia
RXF 393 renal = system: RXF 393 renal
T-47D breast = system: T-47D breast
HS 578T breast = system: HS 578T breast
MCF7 breast = system: MCF7 breast
MALME-3M melanoma = system: MALME-3M melanoma
SNB-75 CNS = system: SNB-75 CNS
K-562 leukemia = system: K-562 leukemia
NCI-H226 lung = system: NCI-H226 lung
OVCAR-5 ovarian = system: OVCAR-5 ovarian
MOLT-4 leukemia = system: MOLT-4 leukemia
CCRF-CEM leukemia = system: CCRF-CEM leukemia
SR leukemia = system: SR leukemia
MDA-MB-435 = system: MDA-MB-435
NCI/ADR-RES ovarian = system: NCI/ADR-RES ovarian
A498 renal = system: A498 renal
BT-549 breast = system: BT-549 breast
COLO 205 colon = system: COLO 205 colon
PC-3 prostate = system: PC-3 prostate

CCN(CC)C(=O)c1ccc(C)c(N=NN(C)C)c1
TGI (SF-295 CNS): > 100 µM | TGI (U251 CNS): > 100 µM | TGI (SW-620 colon): > 100 µM | TGI (UACC-257 melanoma): > 100 µM | TGI (CAKI-1 renal): > 100 µM | TGI (SN12C renal): > 100 µM | TGI (NCI-H23 lung): > 100 µM | TGI (HCT-116 colon): > 100 µM | TGI (HOP-62 NSCLC): > 100 µM | TGI (HOP-92 NSCLC): > 100 µM | TGI (KM12 colon): > 100 µM | TGI (SK-MEL-28 melanoma): > 100 µM | TGI (EKVX NSCLC): > 100 µM | TGI (NCI-H460 lung): > 100 µM | TGI (M19-MEL melanoma): > 100 µM | TGI (A549 NSCLC): > 100 µM | TGI (UACC-62 melanoma): > 100 µM | TGI (NCI-H522 lung): > 100 µM | TGI (OVCAR-8 ovarian): > 100 µM | TGI (OVCAR-3 ovarian): > 100 µM | TGI (SF-539 CNS): > 100 µM | TGI (SNB-19 CNS): > 100 µM | TGI (DMS 273 small cell lung): > 100 µM | TGI (SK-MEL-5 melanoma): > 100 µM | TGI (TK-10 renal): > 100 µM | TGI (SK-MEL-2 melanoma): > 100 µM | TGI (IGROV1 ovarian): > 100 µM | TGI (HCT-15 colon): > 100 µM | TGI (LOX IMVI melanoma): > 100 µM | TGI (ACHN renal): > 100 µM | TGI (UO-31 renal): > 100 µM | TGI (LXFL 529 NSCLC): > 100 µM | TGI (HCC-2998 colon): > 100 µM | TGI (M14 melanoma): > 100 µM | TGI (DLD-1 colon): > 100 µM | TGI (OVCAR-4 ovarian): > 100 µM | TGI (786-0 renal): > 100 µM | TGI (HT29 colon): > 100 µM | TGI (SF-268 CNS): > 100 µM

Cc1cc(=O)oc2c(CN(CCCl)CCCl)c(O)ccc12
TGI (RPMI-8226 leukemia): 63.6 µM | TGI (SF-295 CNS): > 100 µM | TGI (U251 CNS): > 100 µM | TGI (SW-620 colon): > 100 µM | TGI (UACC-257 melanoma): > 100 µM | TGI (CAKI-1 renal): > 100 µM | TGI (DU-145 prostate): > 100 µM | TGI (SN12C renal): > 100 µM | TGI (NCI-H23 lung): > 100 µM | TGI (MDA-N): > 100 µM | TGI (MDA-MB-231 breast): > 100 µM | TGI (HCT-116 colon): > 100 µM | TGI (HOP-62 NSCLC): > 100 µM | TGI (HL-60(TB) leukemia): 27.4 µM | TGI (HOP-92 NSCLC): > 100 µM | TGI (KM12 colon): > 100 µM | TGI (SK-MEL-28 melanoma): > 100 µM | TGI (RXF 393 renal): > 100 µM | TGI (EKVX NSCLC): > 100 µM | TGI (T-47D breast): > 100 µM | TGI (HS 578T breast): > 100 µM | TGI (MCF7 breast): > 100 µM | TGI (MALME-3M melanoma): > 100 µM | TGI (NCI-H460 lung): > 100 µM | TGI (A549 NSCLC): > 100 µM | TGI (SNB-75 CNS): > 100 µM | TGI (K-562 leukemia): > 100 µM | TGI (NCI-H226 lung): > 100 µM | TGI (OVCAR-5 ovarian): > 100 µM | TGI (UACC-62 melanoma): 71.2 µM | TGI (NCI-H522 lung): 36.4 µM | TGI (OVCAR-8 ovarian): > 100 µM | TGI (MOLT-4 leukemia): 98.8 µM | TGI (CCRF-CEM leukemia): 31.7 µM | TGI (OVCAR-3 ovarian): > 100 µM | TGI (SF-539 CNS): > 100 µM | TGI (SR leukemia): > 100 µM | TGI (MDA-MB-435): > 100 µM | TGI (SNB-19 CNS): > 100 µM | TGI (SK-MEL-5 melanoma): > 100 µM | TGI (SK-MEL-2 melanoma): > 100 µM | TGI (NCI/ADR-RES ovarian): > 100 µM | TGI (IGROV1 ovarian): > 100 µM | TGI (A498 renal): > 100 µM | TGI (HCT-15 colon): > 100 µM | TGI (BT-549 breast): 78.5 µM | TGI (LOX IMVI melanoma): > 100 µM | TGI (ACHN renal): > 100 µM | TGI (UO-31 renal): > 100 µM | TGI (HCC-2998 colon): > 100 µM | TGI (M14 melanoma): > 100 µM | TGI (OVCAR-4 ovarian): > 100 µM | TGI (786-0 renal): > 100 µM | TGI (COLO 205 colon): 71.7 µM | TGI (HT29 colon): > 100 µM | TGI (SF-268 CNS): > 100 µM | TGI (PC-3 prostate): > 100 µM
